Experimental data as given in EP4810052A2, “HCRHR2 SELECTIVE POLYPEPTIDES” (Gubra A/S, priority 2023, dated 2026).
Marks after values point to notes of the source that are not given here. Starred links: 1 amine or outer side, 2 acyl side, 3 side chain; linkers in the order of their positions; H or OH if unused. Non-standard residues stand in square brackets, D forms with d. Residues, ends and D or L forms follow the SMILES beside them. Groups on a side chain read outwards from the residue. *: point of attachment. C20 diacid = O=C(O)CCCCCCCCCCCCCCCCCCC(=O)*; γGlu = O=C(O)[C@H](CCC(=O)[*:2])N[*:1]; NMeI = CC[C@H](C)[C@H](NC)C(=O)O; AEEA = NCCOCCOCC(=O)O

Experiments:
PK in minipigs = details: male, Göttingen, minipig, in vivo; for half-life: iv, 6.0 nmol/kg i.v., read-out: T½ (converted)
Method: Pharmacokinetics studies were determined in male Göttingen minipigs from Ellegaard Göttingen Minipigs A/S. Animals were acclimatised for at least 7 days before placed on study. The minipigs had prior to study been surgically implanted with central venous catheters inserted which were used for blood sampling. Animals were housed under a 12/12 h dark-light cycle with ad libitum access to domestic water and animals were fed a commercially standard maintenance diet twice daily.
Test compounds where administrated either as a cassette or as a single compound. Test compounds were administrated by a single intravenous injection or short infusion (5-10 min) through the implanted catheter or a single subcutaneously injection. The subcutaneously injection was given in the mid neck between ear and scapula with a stopper on the needle, allowing 0.5 cm of the needle to be inserted.Plasma concentration-time profiles employing 12-16 sampling points were obtained from each animal. As an example, blood samples were collected on the following times: 0 (predose), 0.17, 0.33, 0.5, 1, 2, 5, 6, 24, 48, 72, 92, 168, 240 and 336 hrs post administration. Approximately 2 mL blood was drawn from the central catheter from each animal at each sampling point. Blood samples were taken in K2 or K3 EDTA tubes. Blood was kept on ice for maximum 30 min before centrifugation (10 min, 4°C, 2000 x g). Approximately 200 µL plasma samples was transferred to a Micronic tube and stored at -20° or lower.
Pharmacokinetics parameters were calculated by non-compartmental analysis (NCA) of the individual plasma concentrations-time profile from the animals. The log-linear trapezoidal method was used for estimation of AUC and AUMC. The terminal T½ was determined as In(2)/λz where λz is the first order rate constant as determined by the terminal log-linear part of the curve.
Plasma concentrations were measured by LC-MSMS using electrospray ionization and multiple reaction monitoring. Calibration standards and quality control (QC) samples were prepared in specie match matrix. 15 µL calibration standards, QC and study samples were extracted by protein precipitation using 60 µL methanol followed by addition of 45 µL milliQ water. Samples were shaken (800 rpm) at room temperature for 5 min before centrifugation (2570×g, 40 min, 4°C) and the supernatant was transferred to a LoBind PCR plate. Samples were analysed on a Thermo Triscend UHPLC system coupled to a Sciex API 6500+ mass spectrometer. Samples were subject to online SPE clean-up on a HLB column (1×50 mm, Waters) before loaded onto a Aeris Peptide XB C18 column (3.6 µm, 100 Å, 2×50 mm, Phenomenex) analytical column. The mobile phases consisted of acetonitrile and milliQ H2O both containing 0.1% V/V formic acid. The flow rate was 0.60 mL/min and the column was kept at room temperature.

[1] = Body mass and body fat content in mouse model of diet-induced obesity (DIO); format: in vivo; details: DIO mice; for relative body weight: 28 days, compared to vehicle; for BW at termination / Fat mass change from baseline / Lean mass change from baseline / Relative body weight change at termination / Body weight at termination: ± SEM
Method: SEQ ID NO: 3, SEQ ID NO: 6, SEQ ID NO: 238, SEQ ID NO: 16 and SEQ ID NO: 215 were assessed for their ability to reduce body mass and body fat content in a mouse model of diet-induced obesity (DIO).
Male C57BL/6JRj mice were obtained from JanVier (JanVier Labs, France) at 5 weeks of age. The animals were group-housed during obesity induction and then single housed 2 weeks prior to study start. They were housed under a 12/12 h dark-light cycle, light off at 3 PM. Room temperature was controlled to 22°C ± 1°C, with 60 % ± 20% humidity. For 22-23 weeks prior to treatment start and throughout the study, the animals had ad libitum access to high-fat diet (60% kcal fat, D12492, Research Diets) and tap water.
The animals were randomized according to lean mass (EchoMRI) and body weight. Animals were dosed subcutaneously […] for 30-32 days. In study 1, the animals were dosed with vehicle or SEQ ID NO: 3 (10, 30, 60 or 100 nmol/kg). In study 2, the animals were dosed with vehicle or SEQ ID NO: 6 (10 or 30 nmol/kg), SEQ ID NO: 238 (10 or 30 nmol/kg), SEQ ID NO: 16 (10 or 30 nmol/kg), SEQ ID NO: 215 (10 or 30 nmol/kg) or SEQ ID NO: 3 (30 nmol/kg).
Body weight and food intake were recorded daily until day 28 and body composition evaluated on day 26 using EchoMRI. At termination, blood for HbA1c analyses were collected and M. gastrocnemius and M. soleus were weighed.
Statistical significance was evaluated using One-way analysis of variance with Dunnett's multiple comparison test. P < 0.05 was considered statistically significant.

mCRHR2 = target: T1, mCRHR2 (Mus musculus, UniProt Q60748); assay: cAMP potency, transiently transfected CHO-K1 cells, mCRHR2; format: cell-based; details: transiently transfected CHO-K1, average n=3; read-out: Transient cell system EC50 (nM) mCRH R2
T1 construct: DYK (FLAG); host or cells: CHO-K1, transiently transfected
T1 sequence (Q60748 1-431 isoform Q60748-2): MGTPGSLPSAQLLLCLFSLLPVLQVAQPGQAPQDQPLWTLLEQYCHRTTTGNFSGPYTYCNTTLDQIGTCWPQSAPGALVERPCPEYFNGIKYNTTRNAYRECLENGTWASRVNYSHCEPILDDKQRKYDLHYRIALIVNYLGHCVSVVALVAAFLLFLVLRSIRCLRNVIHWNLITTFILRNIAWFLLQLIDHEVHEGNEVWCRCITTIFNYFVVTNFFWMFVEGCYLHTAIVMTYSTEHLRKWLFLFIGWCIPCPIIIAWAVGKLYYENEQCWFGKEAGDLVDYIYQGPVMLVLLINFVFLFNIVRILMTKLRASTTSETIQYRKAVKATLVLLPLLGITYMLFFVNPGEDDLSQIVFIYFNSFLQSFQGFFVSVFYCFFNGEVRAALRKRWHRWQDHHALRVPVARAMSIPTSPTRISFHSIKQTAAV
Method: (§1) Selected peptides were tested for potency on different species (mouse, rat, porcine) using transiently transfected CHO-K1 cells using the general procedure.

pCRHR2 = assay: cAMP potency, transiently transfected CHO-K1 cells, pCRHR2; format: cell-based, pig; details: transiently transfected CHO-K1, average n=3; read-out: Transient cell system EC50 (nM) pCR HR2
Method: as §1

## CC[C@H](C)[C@H](N)C(=O)N[C@H](C(=O)N[C@@H](CC(C)C)C(=O)N[C@@H](CO)C(=O)N[C@@H](CC(C)C)C(=O)N[C@@H](CC(=O)O)C(=O)N[C@H](C(=O)N1CCC[C@H]1C(=O)N[C@H](C(=O)NCC(=O)N[C@@H](CC(C)C)C(=O)N[C@@H](CC(C)C)C(=O)N[C@@H](CCC(N)=O)C(=O)N[C@H](C(=O)N[C@@H](CC(C)C)C(=O)N[C@@H](CC(C)C)C(=O)N[C@@H](CCC(=O)O)C(=O)N[C@@H](CCC(N)=O)C(=O)N[C@@H](C)C(=O)N[C@@H](CCCNC(=N)N)C(=O)N[C@@H](C)C(=O)N[C@@H](CCCNC(=N)N)C(=O)N[C@@H](C)C(=O)N[C@@H](C)C(=O)N[C@@H](CCCNC(=N)N)C(=O)N[C@@H](CCC(=O)O)C(=O)N[C@@H](CCC(N)=O)C(=O)N[C@@H](C)C(=O)N[C@@H](CCCCNC(=O)COCCOCCNC(=O)COCCOCCNC(=O)CC[C@H](NC(=O)CC[C@H](NC(=O)CCCCCCCCCCCCCCCCCCC(=O)O)C(=O)O)C(=O)O)C(=O)N[C@H](C(=O)N[C@@H](CC(N)=O)C(=O)N[C@@H](C)C(=O)N[C@@H](CCC(=O)O)C(=O)N[C@H](C(=O)N[C@@H](CC(C)C)C(=O)N[C@@H](C)C(=O)N[C@@H](CCC(=O)O)C(=O)N[C@H](C(N)=O)C(C)C)[C@@H](C)CC)[C@@H](C)O)[C@@H](C)CC)[C@@H](C)CC)C(C)C)C(C)C [SEQ ID NO: 3] (H-IVLSLDVPIGLLQILLEQARARAAREQAK([AEEA-AEEA-γGlu-γGlu-C20 diacid])TNAEILAEV-NH2)
PK in minipigs; Pig
  half-life: 156 h
PK in minipigs; sc
  bioavailability: 55%
PK in minipigs; sc, Pig, 6.0 nmol/kg s.c
  Cmax: 60 nM
  Tmax: 24 h
[1]
  relative body weight: prolonged dose-dependent reduction
[1]; Table 16 study, 10 nmol/kg
  Blood HbA1c: 4.3 ± 0.1%
  M. Gastrocnemius: 0.17 ± 0.005 g
  M. Soleus: 0.011 ± 0.0005 g
  BW at termination: 41.9 ± 1.5 g
  Fat mass change from baseline: -7.7 ± 0.7 g
  Lean mass change from baseline: 1.4 ± 0.3 g
  Relative body weight change at termination: 94.3 ± 1.6 %
[1]; Table 16 study, 30 nmol/kg
  Blood HbA1c: 4.1 ± 0.1 %
  M. Gastrocnemius: 0.17 ± 0.003 g
  M. Soleus: 0.012 ± 0.0005 g
  BW at termination: 38.2 ± 1.0 g
  Fat mass change from baseline: -10.2 ± 0.6 g
  Lean mass change from baseline: 0.4 ± 0.4 g
  Relative body weight change at termination: 89.0 ± 2.2 %
[1]; Table 16 study, 60 nmol/kg
  Blood HbA1c: 4.15 ± 0.1 %
  M. Gastrocnemius: 0.16 ± 0.004 g
  M. Soleus: 0.012 ± 0.0004 g
  BW at termination: 38.5 ± 0.6 g
  Fat mass change from baseline: -10.8 ± 0.6 g
  Lean mass change from baseline: 0.8 ± 0.3 g
  Relative body weight change at termination: 89.9 ± 1.9 %
[1]; Table 16 study, 100 nmol/kg
  Blood HbA1c: 4.1 ± 0.1 %
  M. Gastrocnemius: 0.17 ± 0.003 g
  M. Soleus: 0.011 ± 0.0006 g
  BW at termination: 37.3 ± 0.6 g
  Fat mass change from baseline: -11.2 ± 0.6 g
  Lean mass change from baseline: 0.8 ± 0.2 g
  Relative body weight change at termination: 87.7 ± 1.3 %
[1]; Table 17 study, 30 nmol/kg
  Blood HbA1c: 4.2 ± 0.1 %
  M. Gastrocnemius: 0.19 ± 0.003* * g
  M. Soleus: 0.013 ± 0.0006 g
  Body weight at termination: 39.3 ± 0.9 g
  Fat mass change from baseline: -9.5 ± 0.6 g
  Lean mass change from baseline: -0.2 ± 0.2 g
  Relative body weight change at termination: 82.4 ± 1.6 %
mCRHR2
  EC50: 0.0054 nM
pCRHR2
  EC50: 0.027 nM

## CC[C@H](C)[C@H](NC)C(=O)N[C@H](C(=O)N[C@@H](CC(C)C)C(=O)N[C@@H](CO)C(=O)N[C@@H](CC(C)C)C(=O)N[C@@H](CC(=O)O)C(=O)N[C@H](C(=O)N1CCC[C@H]1C(=O)N[C@H](C(=O)NCC(=O)N[C@@H](CC(C)C)C(=O)N[C@@H](CC(C)C)C(=O)N[C@@H](CCC(N)=O)C(=O)N[C@H](C(=O)N[C@@H](CC(C)C)C(=O)N[C@@H](CC(C)C)C(=O)N[C@@H](CCC(=O)O)C(=O)N[C@@H](CCC(N)=O)C(=O)N[C@@H](C)C(=O)N[C@@H](CCCNC(=N)N)C(=O)N[C@@H](C)C(=O)N[C@@H](CCCNC(=N)N)C(=O)N[C@@H](C)C(=O)N[C@@H](C)C(=O)N[C@@H](CCCNC(=N)N)C(=O)N[C@@H](CCC(=O)O)C(=O)N[C@@H](CCC(N)=O)C(=O)N[C@@H](C)C(=O)N[C@H](C(=O)N[C@@H](CCCCNC(=O)COCCOCCNC(=O)COCCOCCNC(=O)CC[C@H](NC(=O)CC[C@H](NC(=O)CCCCCCCCCCCCCCCCCCC(=O)O)C(=O)O)C(=O)O)C(=O)N[C@@H](CC(N)=O)C(=O)N[C@@H](C)C(=O)N[C@@H](CCC(=O)O)C(=O)N[C@H](C(=O)N[C@@H](CC(C)C)C(=O)N[C@@H](C)C(=O)N[C@@H](CCC(=O)O)C(=O)N[C@H](C(N)=O)C(C)C)[C@@H](C)CC)[C@@H](C)O)[C@@H](C)CC)[C@@H](C)CC)C(C)C)C(C)C [SEQ ID NO: 6] (H-[NMeI]VLSLDVPIGLLQILLEQARARAAREQATK([AEEA-AEEA-γGlu-γGlu-C20 diacid])NAEILAEV-NH2)
PK in minipigs; Pig
  half-life: 145 h
[1]
  relative body weight: prolonged dose-dependent reduction
[1]; Table 17 study, 10 nmol/kg
  Blood HbA1c: 4.0 ± 0.1 %
  M. Gastrocnemius: 0.18 ± 0.004 g
  M. Soleus: 0.012 ± 0.0008 g
  Body weight at termination: 42.6 ± 1.3 g
  Fat mass change from baseline: -7.0 ± 0.9 g
  Lean mass change from baseline: 0.1 ± 0.3 g
  Relative body weight change at termination: 89.1 ± 2.0 %
[1]; Table 17 study, 30 nmol/kg
  Blood HbA1c: 4.1 ± 0.1 %
  M. Gastrocnemius: 0.18 ± 0.001 g
  M. Soleus: 0.013 ± 0.0004 g
  Body weight at termination: 38 ± 0.5 g
  Fat mass change from baseline: -10.7 ± 0.5 g
  Lean mass change from baseline: -0.1 ± 0.3 g
  Relative body weight change at termination: 79.3 ± 1.2 %
mCRHR2
  EC50: 0.0043 nM
pCRHR2
  EC50: 0.03 nM
